These results are taken from patent US9765075B2, “Substituted bridged urea analogs as sirtuin modulators” (GLAXOSMITHKLINE LLC, priority 2013, dated 2017).

The assay addresses T1, SIRT1 (Homo sapiens, UniProt Q96EB6).
T1 sequence (Q96EB6 1-747): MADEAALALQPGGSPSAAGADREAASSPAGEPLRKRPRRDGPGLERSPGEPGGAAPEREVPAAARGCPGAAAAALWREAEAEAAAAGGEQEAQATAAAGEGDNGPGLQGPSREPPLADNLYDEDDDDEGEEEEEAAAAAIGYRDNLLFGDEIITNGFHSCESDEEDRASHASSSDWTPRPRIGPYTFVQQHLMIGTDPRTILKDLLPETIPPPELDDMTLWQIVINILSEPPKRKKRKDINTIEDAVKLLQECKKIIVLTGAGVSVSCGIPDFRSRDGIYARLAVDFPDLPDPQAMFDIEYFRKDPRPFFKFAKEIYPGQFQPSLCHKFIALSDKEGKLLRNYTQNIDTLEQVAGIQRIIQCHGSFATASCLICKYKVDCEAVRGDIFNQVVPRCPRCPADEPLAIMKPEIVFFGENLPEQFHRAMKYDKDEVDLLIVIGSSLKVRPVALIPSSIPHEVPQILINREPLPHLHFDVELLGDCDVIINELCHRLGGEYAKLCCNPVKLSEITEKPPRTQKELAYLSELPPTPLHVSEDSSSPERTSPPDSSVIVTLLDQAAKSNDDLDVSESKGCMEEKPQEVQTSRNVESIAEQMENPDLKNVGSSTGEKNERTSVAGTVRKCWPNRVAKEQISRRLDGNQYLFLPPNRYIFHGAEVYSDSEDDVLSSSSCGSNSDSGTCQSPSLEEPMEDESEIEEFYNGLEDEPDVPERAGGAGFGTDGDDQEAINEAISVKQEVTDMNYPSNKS
The experiment in a line: Trp mass spectrometry assay (SIRT1 activation). The class given is biochemical. The settings on record: Trp peptide substrate; for Tryp AVG EC1.5 (μM): concentration of test compound that results in 150% activation of SIRT1; for Emax: percent maximum fold activation of SIRT1, read-out: Tryp % Fold Act. In outline: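 N-His-tagged SIRT1 (10 nM), expressed in E. coli, was incubated with 0.5 μM Ac-RHKK(Ac)W-NH2 peptide and 120 μM NAD+ for 25 min at 25 °C in HEPES pH 7.5 with […]. The reaction was stopped with formic acid and O-acetyl-ADP-ribose or deacetylated peptide was quantified by mass spectrometry. Results are given as EC1.5 and percent maximal activation relative to DMSO control.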

Some results are limits rather than exact numbers.

With `O=C(Nc1cncc(Br)c1)N1c2nc(-c3cccc(C(F)(F)F)c3)ccc2N2CC[C@H]1C2` [Example 542], the “Tryp AVG EC1.5 (μM)” value is “A (EC1.5<1 μM)” and the Emax was ≥ 150%.
On the same counts, the results for `O=C(Nc1cnccn1)N1c2nc(-c3cccc(Cl)c3)ccc2N2CCC1CC2` [Example 543] are “B (EC1.5 1-25 μM)” and ≥ 150%.
On the same counts, the results for `O=C(Nc1cccnc1)N1c2nc(-c3cncc(Cl)c3)ccc2N2CCC1CC2` [Example 544] are “B (EC1.5 1-25 μM)” and ≥ 150%.
For `O=C(Nc1cncc(F)c1)N1c2nc(-c3cncc(Cl)c3)ccc2N2CCC1CC2` [Example 545], in that order: “B (EC1.5 1-25 μM)” and ≥ 150%.
Take `O=C(CCCCCNC(=O)c1ccc(-c2c3ccc(=O)cc-3oc3cc(O)ccc23)c(C(=O)O)c1)NCc1ccc(NC(=O)N2c3nc(-c4cccc(C(F)(F)F)c4)ccc3N3CC[C@H]2C3)cc1` [Example 547]: the “Tryp AVG EC1.5 (μM)” value is listed as “C (EC1.5>25 μM)” and the Emax was < 150%.
In the case of `CC1(CCC(=O)NCc2ccc(NC(=O)N3c4nc(-c5cccc(C(F)(F)F)c5)ccc4N4CC[C@H]3C4)cc2)N=N1` [Example 548], the “Tryp AVG EC1.5 (μM)” value is on record as “B (EC1.5 1-25 μM)” and the Emax is ≥ 150%.
On the same counts, the results for `O=C(Nc1cccnc1)N1c2nc(-c3cnn(-c4ccccc4)c3)ccc2N2CC[C@H]1C2` [Example 549] are “B (EC1.5 1-25 μM)” and ≥ 150%.
For `O=C(Nc1cnccn1)N1c2nc(-c3cncc(Cl)c3)ccc2N2CCC1CC2` [Example 550], in that order: “B (EC1.5 1-25 μM)” and ≥ 150%.
Consider `O=C(Nc1ccccn1)N1c2nc(-c3cncc(Cl)c3)ccc2N2CCC1CC2` [Example 551], for which the “Tryp AVG EC1.5 (μM)” value was “B (EC1.5 1-25 μM)” and the Emax was ≥ 150%.
For `COc1cc(NC(=O)N2c3nc(-c4cncc(Cl)c4)ccc3N3CCC2CC3)ncn1` [Example 552], in that order: “C (EC1.5>25 μM)” and < 150%.
As for `COc1cc(NC(=O)N2c3nc(-c4cncc(Cl)c4)ccc3N3CCC2CC3)nc(OC)n1` [Example 553], the “Tryp AVG EC1.5 (μM)” value was “B (EC1.5 1-25 μM)” and the Emax was ≥ 150%.
Take `Cc1nc(NC(=O)N2c3nc(-c4cncc(Cl)c4)ccc3N3CCC2CC3)sc1C` [Example 554]: the “Tryp AVG EC1.5 (μM)” value was “B (EC1.5 1-25 μM)” and the Emax was ≥ 150%.
On the same counts, the results for `O=C(Nc1cnccn1)N1c2nc(-c3cncc(F)c3)ccc2N2CCC1CC2` [Example 555] are “B (EC1.5 1-25 μM)” and ≥ 150%.
For `O=C(Nc1cccnc1)N1c2nc(-c3cncc(C(F)(F)F)c3)ccc2N2CC[C@H]1C2` [Example 556], in that order: “A (EC1.5<1 μM)” and ≥ 150%.
With `N#Cc1cncc(-c2ccc3c(n2)N(C(=O)Nc2ccccn2)[C@H]2CCCN3C2)c1` [Example 557], the “Tryp AVG EC1.5 (μM)” value is given as “A (EC1.5<1 μM)” and the Emax was ≥ 150%.
For `N#Cc1cncc(-c2ccc3c(n2)N(C(=O)Nc2ccncn2)[C@H]2CCCN3C2)c1` [Example 558], the “Tryp AVG EC1.5 (μM)” value is recorded as “B (EC1.5 1-25 μM)” and the Emax is ≥ 150%.
For `O=C(Nc1cncc(F)c1)N1c2nc(-c3cccc(N4CCOCC4)c3)ccc2N2CCC[C@H]1C2` [Example 559], in that order: “A (EC1.5<1 μM)” and ≥ 150%.
On the same counts, the results for `O=C(Nc1cnccn1)N1c2nc(-c3cccc(N4CCOCC4)c3)ccc2N2CCC[C@H]1C2` [Example 560] are “B (EC1.5 1-25 μM)” and ≥ 150%.
On the same counts, the results for `Cc1cc(-c2ccc3c(n2)N(C(=O)Nc2cnc(OC[C@@H](O)CO)cn2)[C@H]2CCN3C2)ccn1` [Example 561] are “B (EC1.5 1-25 μM)” and ≥ 150%.
As for `O=C(Nc1cc(Br)cc(-c2cnco2)c1)N1c2nc(-c3cccc(C(F)(F)F)c3)ccc2N2CC[C@H]1C2` [Example 562], the “Tryp AVG EC1.5 (μM)” value was “A (EC1.5<1 μM)” and the Emax is ≥ 150%.
For `O=C(O)c1cc(NC(=S)NCc2ccc(NC(=O)N3c4nc(-c5cccc(C(F)(F)F)c5)ccc4N4CCC[C@H]3C4)cc2)ccc1-c1c2ccc(=O)cc-2oc2cc(O)ccc12` [Example 563], in that order: “A (EC1.5<1 μM)” and ≥ 150%.
For `Cc1nc(NC(=O)N2c3nc(-c4cccc(Cl)c4)ccc3N3CCC2CC3)sc1C` [Example 569], in that order: “B (EC1.5 1-25 μM)” and ≥ 150%.
On the same counts, the results for `O=C(Nc1ccccn1)N1c2nc(-c3cncc(F)c3)ccc2N2CCC1CC2` [Example 570] are “B (EC1.5 1-25 μM)” and ≥ 150%.
On to `O=C(Nc1cncc(F)c1)N1c2nc(-c3cncc(F)c3)ccc2N2CCC1CC2` [Example 571], for which the “Tryp AVG EC1.5 (μM)” value is reported as “B (EC1.5 1-25 μM)” and the Emax is ≥ 150%.
On the same counts, the results for `O=C(Nc1cccnc1)N1c2nc(-c3cncc(F)c3)ccc2N2CCC1CC2` [Example 572] are “B (EC1.5 1-25 μM)” and ≥ 150%.
On the same counts, the results for `O=C(Nc1ccncn1)N1c2nc(-c3cncc(F)c3)ccc2N2CCC1CC2` [Example 573] are “C (EC1.5>25 μM)” and < 150%.
Take `O=C(Nc1cccc(-c2cnco2)c1)N1c2nc(-c3cncc(F)c3)ccc2N2CCC1CC2` [Example 574]: the “Tryp AVG EC1.5 (μM)” value is “A (EC1.5<1 μM)” and the Emax was ≥ 150%.
On the same counts, the results for `O=C(Nc1cccc(-c2cnco2)c1)N1c2nc(-c3cncc(Cl)c3)ccc2N2CCC1CC2` [Example 575] are “A (EC1.5<1 μM)” and ≥ 150%.
For `O=C(Nc1ccncn1)N1c2nc(-c3cncc(Cl)c3)ccc2N2CCC1CC2` [Example 576], in that order: “B (EC1.5 1-25 μM)” and ≥ 150%.
On the same counts, the results for `Cc1nc(NC(=O)N2c3nc(-c4cncc(F)c4)ccc3N3CCC2CC3)sc1C` [Example 577] are “B (EC1.5 1-25 μM)” and ≥ 150%.
For `COc1cc(NC(=O)N2c3nc(-c4cncc(F)c4)ccc3N3CCC2CC3)nc(OC)n1` [Example 578], the “Tryp AVG EC1.5 (μM)” value is listed as “B (EC1.5 1-25 μM)” and the Emax is ≥ 150%.
On the same counts, the results for `COc1cc(NC(=O)N2c3nc(-c4cncc(F)c4)ccc3N3CCC2CC3)ncn1` [Example 579] are “B (EC1.5 1-25 μM)” and ≥ 150%.
On the same counts, the results for `O=C(Nc1ccc(-n2cncn2)cc1)N1c2nc(-c3cccc(C(F)(F)F)c3)ccc2N2CC[C@H]1C2` [Example 580] are “A (EC1.5<1 μM)” and ≥ 150%.
For `O=C(Nc1cccc(-n2cncn2)c1)N1c2nc(-c3cccc(C(F)(F)F)c3)ccc2N2CC[C@H]1C2` [Example 581], in that order: “A (EC1.5<1 μM)” and ≥ 150%.
Take `Cc1ccc(-c2ccc(NC(=O)N3c4nc(-c5cccc(C(F)(F)F)c5)ccc4N4CC[C@H]3C4)cc2)o1` [Example 582]: the “Tryp AVG EC1.5 (μM)” value was “B (EC1.5 1-25 μM)” and the Emax is ≥ 150%.
For `Cc1nc(-c2cccc(NC(=O)N3c4nc(-c5cccc(C(F)(F)F)c5)ccc4N4CC[C@H]3C4)c2)cs1` [Example 583], in that order: “A (EC1.5<1 μM)” and ≥ 150%.
For `O=C(Nc1cccnc1)N1c2nc(-c3cnn(C4CCCC4)c3)ccc2N2CC[C@H]1C2` [Example 587], in that order: “B (EC1.5 1-25 μM)” and ≥ 150%.
Consider `O=C(Nc1cccc(-c2cnco2)n1)N1c2nc(-c3cccc(C(F)(F)F)c3)ccc2N2CC[C@H]1C2` [Example 588], for which the “Tryp AVG EC1.5 (μM)” value is recorded as “A (EC1.5<1 μM)” and the Emax was ≥ 150%.
As for `O=C(Nc1cc(-c2cnco2)ccn1)N1c2nc(-c3cccc(C(F)(F)F)c3)ccc2N2CC[C@H]1C2` [Example 589], the “Tryp AVG EC1.5 (μM)” value was “A (EC1.5<1 μM)” and the Emax was ≥ 150%.
On the same counts, the results for `O=C(Nc1cccc(-c2cnco2)n1)N1c2nc(-c3cccc(C(F)(F)F)c3)ccc2N2CCC[C@H]1C2` [Example 590] are “A (EC1.5<1 μM)” and ≥ 150%.
For `O=C(Nc1cc(-c2cnco2)ccn1)N1c2nc(-c3cccc(C(F)(F)F)c3)ccc2N2CCC[C@H]1C2` [Example 591], in that order: “A (EC1.5<1 μM)” and ≥ 150%.
On the same counts, the results for `CC(C)(C)OC(=O)N1CCC(c2cccc(NC(=O)N3c4nc(-c5cccc(C(F)(F)F)c5)ccc4N4CC[C@H]3C4)c2)C1` (stereo partly drawn) [Example 592] are “A (EC1.5<1 μM)” and ≥ 150%.
